We go through seven compounds from patent US20220257706A1, “EPIDERMAL GROWTH FACTOR RECEPTOR (EGFR) LIGANDS” (NANYANG TECHNOLOGICAL UNIVERSITY, priority 2019, published 2022).

By half-life is commonly meant the time needed for the level to fall by half in the phase considered. In general, IC50 refers to the concentration at which inhibition is half-maximal.

The test system of data set [1] is HaCaT cells. The format is cell-based, human. The note with it: for mitogenic effect compared with bleogen pB1: 1 μM, crystal violet assay; for EGFR dependence of proliferative/mitogenic effect: co-incubation with EGFR neutralizing antibody (clone LA1). As for the experimental part:
HaCaT (human keratinocyte), HUVEC-CS (endothelial cells) cells were cultured in Dulbecco's modification of Eagle's medium (DMEM) supplemented with 10% fetal bovine serum and 100 U/mL of penicillin and streptomycin. Normal Human Epidermal Keratinocytes adult purchased from Lifeline® cell technology were cultured in Lifeline® DermaLife K Medium. They were grown in a 5% CO2 humidified incubator at 37° C. HaCaT cells were stably transfected with pGL4.33[luc2P/SRE/Hygro] (Promega) and selected using 250 μg/mL hygromycin. Stable HaCaT cells expressing SRE luciferase reporter were maintained with 250 μg/mL hygromycin.
Cell proliferation was determined using crystal violet staining. […] 3417-Da-peptide aB1 is a CRP isolated from Achyranthes bidentata with the amino acid sequence […] (SEQ ID NO:11). Crystal violet staining was performed as previously described. Briefly, after the incubation period, the wells were fixed with 4% buffered paraformaldehyde for 20 min. The cells were then stained with 0.25% crystal violet in 20% methanol for 15 min. The excess crystal violet stain was rinsed with distilled water for 4-5 times and air-dried. Glacial acetic acid (10%) in Milli-Q water was added to extract the crystal violet stain. The absorbance was then measured at 595 nm using a microplate reader (Tecan Infinite® 200 Pro, Switzerland).

Data set [2] concerns pepsin, trypsin, pronase, human neutrophil elastase. Put plainly: Proteolytic stability against a panel of proteases. The following applies: disulfide bridges reduced and S-alkylated by iodoacetamide.
Experimental: (§3) Samples were collected at various time points.
(§4) All collected samples from various stability assays were analyzed by RP-HPLC with a linear gradient of mobile phase A (0.05% TFA/H2O) and mobile phase B (0.05% TFA/ACN) on aeris peptide XB-C18 column (Phenomenex, US). The resulting peaks were collected and identified by MALDI-TOF MS. The results were expressed as percentage of initial concentration using the peak area of the HPLC profile.
Data set [3] has the same test system. Put plainly: in vitro.
Experimental: as §3, §4
A further data set addresses EGFR (Homo sapiens, UniProt P00533). Put plainly: TR-FRET EGFR ligand binding assay (competitive displacement of biotin-EGF). Further details: purchased PerkinElmer. As for the experimental part: TR-FRET ratio was measured using a microplate reader in dual emission mode (Excitation: 340 nm, emission: 665 nm and 615 nm) (Cytation 1, US). […] (SEQ ID NO:11) or roseltide rT7 with an amino acid sequence of […] (SEQ ID NO:17) were used as negative control.

The next data set can be described thus: physchem. The following applies: buffer.
The subject of data set [4] is STZ-induced diabetic C57BL/6 mice. The data set is described as follows: Full-thickness splinted excisional wound healing in streptozotocin-induced diabetic C57BL/6 mice. The format is in vivo, mouse. The following applies: 1 nmol/wound topical, five consecutive days. How it is done:
(§1) Full-thickness 5-mm splinted excisional wounding of mice was performed. Briefly, mice were anesthetized using an intraperitoneal injection of sodium pentobarbital (50 mg kg^−1). The hair of the back was shaved with an electric clipper followed by a depilatory cream. Using a 5-mm-diameter sterile biopsy punch, symmetrical full-thickness excisional wounds were created. Splints were placed around the wound using adhesive glue and secured with four interrupted sutures. The wounds and splints were covered with Tegaderm (3M, US). At indicated days within the 14 days post-injury course, wound diameters were measured. The size of wound was calculated from the average of two diameter measurements along the x and y axis.
Diabetes was induced into C57BL/6 mice by two intraperitoneal injection (80 mg/kg) of STZ at day 1 and 5. Starting from day 8, blood glucose was monitored regularly for two weeks. […] Blood glucose was also monitored at day 14 post-injury to ensure the mice are diabetic.

The nature of data set [5]: Heat stability (100° C., RP-HPLC). The format is physicochemical. How it is done:
Samples were collected at various time points (0, 30, 60, and 120 min).

The test system of the next data set is newborn ICR mice. Put plainly: Newborn mice model for incisor eruption. It is filed as in vivo, mouse. The note with it: 3 mg/kg subcutaneous, five consecutive days; saline control 153 h. As for the experimental part:
ICR mice were obtained from Vital Rital Laboratories (Beijing, China). […] All experiments were approved and performed in accordance with the institutional guidelines of the Experimental Animal Center of the Chinese Academy of Medical Science (Beijing, China). Subcutaneous injections were made for five consecutive days in the nape of the neck of the newborn mice starting from the day of birth (day 0). […] Incisor eruption was recorded daily by visual inspection. Incisor eruption was defined as the time at which a given tooth first pierced the oral epithelium.

For the next data set, the system named is C57BL/6 mice. Put plainly: Full-thickness splinted excisional wound healing in C57BL/6 mice. It is filed as in vivo, mouse. The following applies: topical, three consecutive days; bleogen pB1 10 nmol/wound, EGF 1 nmol/wound; vs saline. As for the experimental part:
C57BL/6 mice were obtained from Vital Rital Laboratories (Beijing, China). […] All experiments were approved and performed in accordance with the institutional guidelines of the Experimental Animal Center of the Chinese Academy of Medical Science (Beijing, China).
as §1
Full-thickness 5 mm splinted excisional wounding of mice was performed on C57BL/6 mice as described above.

Data set [6] deals with HaCaT cells. The data set is described as follows: Cell migration scratch assay. The format is cell-based, human. The following applies: data not shown. As for the experimental part:
Cell migration was monitored using the scratch assay. Briefly, HaCaT cells were seeded into 2 well silicone inserts with a defined gap of 500 μm (ibidi, Germany). […] After incubation for 8 h, the wells were photographed using inverted phase-contrast microscope. Images were analyzed for the percentage of cell-free area using the Wimasis image analysis platform.

The next data set deals with c-fos. Put plainly: Gene expression analysis (qPCR) of c-fos in HaCaT cells. It is filed as cell-based, human. The note with it: 2 h treatment. How it is done:
(§2) Total RNA was extracted from HaCaT and primary human keratinocytes using PureLink™ RNA mini kit (Thermo Fisher Scientific, US). First-strand cDNA was synthesised from 600 ng of total RNA using SuperScript™ II Reverse Transcriptase and Oligo(dT)12-18 (Thermo Fisher Scientific, US) according to the manufacturer's instructions. Quantitative PCR (qPCR) was performed with iTaq Universal SYBR Green Supermix (Bio-Rad, US) on a CFX96 Touch Real-Time PCR Detection System (Bio-Rad, US) for 40 cycles. PCR reaction (20 μL): 3 μL cDNA, 1 μL primer mix (10 μM), 6 μL DEPC-treated water and 10 μL mastermix. […] GAPDH was used as a housekeeping gene for normalization. Fold changes of gene expressions with c-fos and c-Jun were calculated using the 2^−ΔΔCT method.
In general terms: In qPCR the cycle at which signal appears reflects the starting amount.

The test system of the next data set is c-Jun. The data set is described as follows: Gene expression analysis (qPCR) of c-Jun in HaCaT cells. It is filed as cell-based, human. The following applies: 2 h treatment. As for the experimental part: as §2
In the next data set the test system is HUVEC-CS cells. Put plainly: Endothelial tube formation assay. The format is cell-based. The following applies: data not shown. As for the experimental part: Endothelial tube formation assay was performed using a μ-slide (ibidi, Germany). Briefly, 10 μL of gel matrix (BD Matrigel™ Basement Membrane Matrix) was casted onto each μ-slide well and left to solidify. […] After incubation for 2 h, the wells were photographed using inverted phase-contrast microscope. Images were analyzed for the numbering of branching points using the Wimasis image analysis platform.

Read-outs that look alike come from different tables or passages of the source.

Sequence of EGFR (P00533 25-645 limits assumed): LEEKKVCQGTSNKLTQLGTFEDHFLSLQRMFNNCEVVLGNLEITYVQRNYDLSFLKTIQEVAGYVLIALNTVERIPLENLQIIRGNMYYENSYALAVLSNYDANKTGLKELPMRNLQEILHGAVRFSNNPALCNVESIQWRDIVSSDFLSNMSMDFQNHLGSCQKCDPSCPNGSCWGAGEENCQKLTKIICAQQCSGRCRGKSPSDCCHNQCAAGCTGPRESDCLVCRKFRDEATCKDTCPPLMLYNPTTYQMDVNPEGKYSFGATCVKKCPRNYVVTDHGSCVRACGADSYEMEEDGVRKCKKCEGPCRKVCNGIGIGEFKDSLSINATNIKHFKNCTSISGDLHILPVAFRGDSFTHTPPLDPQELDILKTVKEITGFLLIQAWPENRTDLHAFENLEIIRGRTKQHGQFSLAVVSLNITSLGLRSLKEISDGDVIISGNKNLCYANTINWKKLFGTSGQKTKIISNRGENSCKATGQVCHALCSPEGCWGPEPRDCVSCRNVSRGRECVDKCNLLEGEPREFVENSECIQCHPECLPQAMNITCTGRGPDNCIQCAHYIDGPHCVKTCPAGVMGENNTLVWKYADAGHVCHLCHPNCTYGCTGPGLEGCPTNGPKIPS
Experimental for physchem: as §3, §4

For `COc1cc2ncnc(Nc3cccc(Cl)c3)c2cc1OC` [AG1478, reference compound], the “effect of co-incubation on bleogen pB1-induced HaCaT cell proliferation” value with HaCaT cells [1] (serum-free medium, 72 h) was “substantially inhibited”.

For the compound `CC[C@H](C)[C@H](NC(=O)[C@H](CCC(=O)O)NC(=O)[C@@H](NC(=O)[C@H](CSCC(N)=O)NC(=O)[C@H](CCCCN)NC(=O)[C@H](C)NC(=O)CNC(=O)[C@H](CC(N)=O)NC(=O)[C@@H]1CCCN1C(=O)[C@H](CCCCN)NC(=O)[C@H](CSCC(N)=O)NC(=O)[C@@H](N)CCC(N)=O)[C@@H](C)O)C(=O)N[C@@H](CO)C(=O)N[C@H](C(=O)N1CCC[C@H]1C(=O)N1CCC[C@H]1C(=O)N[C@@H](CSCC(N)=O)C(=O)N[C@@H](CSCC(N)=O)C(=O)N[C@@H](CO)C(=O)N[C@@H](CC(N)=O)C(=O)N[C@@H](Cc1ccccc1)C(=O)N[C@@H](CSCC(N)=O)C(=O)N[C@@H](CC(C)C)C(=O)N[C@@H](CCCNC(=N)N)C(=O)N[C@@H](Cc1ccc(O)cc1)C(=O)N[C@@H](C)C(=O)NCC(=O)N[C@@H](CCC(N)=O)C(=O)N[C@@H](CCCCN)C(=O)N[C@@H](CO)C(=O)NCC(=O)N[C@H](C(=O)N[C@@H](CSCC(N)=O)C(=O)N[C@@H](C)C(=O)N[C@@H](CC(N)=O)C(=O)N[C@@H](CCCNC(=N)N)C(=O)O)[C@@H](C)O)[C@@H](C)CC` [S-alkylated bleogen pB1, reference compound], in [2], the “degradation by proteases (time)” value is given as “within a couple of minutes”.

On to `N#CC(=C(/N)Sc1ccccc1N)/C(C#N)=C(\N)Sc1ccccc1N` [U0126, reference compound], for which the “effect of co-incubation on bleogen pB1-induced HaCaT cell proliferation” value with HaCaT cells [1] is reported as “substantially inhibited”.

As for `CC[C@H](C)[C@@H]1NC(=O)[C@H](CCC(=O)O)NC(=O)[C@H]([C@@H](C)O)NC(=O)[C@@H]2CSSC[C@@H]3NC(=O)[C@H](Cc4ccccc4)NC(=O)[C@H](CC(N)=O)NC(=O)[C@H](CO)NC(=O)[C@H](CSSC[C@H](NC(=O)[C@@H](N)CCC(N)=O)C(=O)N[C@@H](CCCCN)C(=O)N4CCC[C@H]4C(=O)N[C@@H](CC(N)=O)C(=O)NCC(=O)N[C@@H](C)C(=O)N[C@@H](CCCCN)C(=O)N2)NC(=O)[C@H](CSSC[C@@H](C(=O)N[C@@H](C)C(=O)N[C@@H](CC(N)=O)C(=O)N[C@@H](CCCNC(=N)N)C(=O)O)NC(=O)[C@H]([C@@H](C)O)NC(=O)CNC(=O)[C@H](CO)NC(=O)[C@@H](CCCCN)NC(=O)[C@H](CCC(N)=O)NC(=O)CNC(=O)[C@H](C)NC(=O)[C@H](Cc2ccc(O)cc2)NC(=O)[C@H](CCCNC(=N)N)NC(=O)[C@H](CC(C)C)NC3=O)NC(=O)[C@@H]2CCCN2C(=O)[C@@H]2CCCN2C(=O)[C@H]([C@@H](C)CC)NC(=O)[C@H](CO)NC1=O` [[K29k]pB1], the half-life at 0.1 M (in [3]; in the data set “physchem”; in [5]) was above 8.33 h in each case. Further, the entries for the “EGFR affinity / EGF-like biological activity compared with bleogen pB1 (EGFR displacement)” value at EGFR and on EGFR (listed as K29k pB1) were “higher affinity than bleogen pB1” and “increased EGF-like biological activities”, respectively. Further, the “potency relative to bleogen pB1 (fold more potent)” value at EGFR is on record as “approximately 60 fold”; at EGFR (listed as K29k pB1) it was 60 fold. Further, the IC50 on EGFR (TR-FRET, mean±S.D., three independent experiments, read-out: IC50, displacement of biotin-EGF from EGFR) turned out to be 0.027 ± 5e-05 µM. The “wound closure compared with EGF and bleogen pB1 in STZ-diabetic mice” value in data set [4] is “at a similar rate as EGF, and much faster than bleogen pB1”; in data set [4] (listed as K29k pB1), “comparable”. In addition, the “wound healing rate vs vehicle control in STZ-induced diabetic mice” value in [4] is listed as “healed at a significantly faster rate starting from day 4 post-injury”. The “mitogenic effect compared with bleogen pB1” value in the data set with HaCaT cells [1] (72 h) is given as “more mitogenic than bleogen pB1”. The “EGFR dependence of proliferative/mitogenic effect” value in the data set on HaCaT cells [1] is “EGFR-dependent”.

Regarding `CC[C@H](C)[C@@H]1NC(=O)[C@H](CCC(=O)O)NC(=O)[C@H]([C@@H](C)O)NC(=O)[C@@H]2CSSC[C@@H]3NC(=O)[C@H](Cc4ccccc4)NC(=O)[C@H](CC(N)=O)NC(=O)[C@H](CO)NC(=O)[C@H](CSSC[C@H](NC(=O)[C@@H](N)CCC(N)=O)C(=O)N[C@@H](CCCCN)C(=O)N4CCC[C@H]4C(=O)N[C@@H](CC(N)=O)C(=O)NCC(=O)N[C@@H](C)C(=O)N[C@@H](CCCCN)C(=O)N2)NC(=O)[C@H](CSSC[C@@H](C(=O)N[C@@H](C)C(=O)N[C@@H](CC(N)=O)C(=O)N[C@@H](CCCNC(=N)N)C(=O)O)NC(=O)[C@H]([C@@H](C)O)NC(=O)CNC(=O)[C@H](CO)NC(=O)[C@H](CCCCN)NC(=O)[C@H](CCC(N)=O)NC(=O)CNC(=O)[C@H](C)NC(=O)[C@@H](Cc2ccc(O)cc2)NC(=O)[C@H](CCCNC(=N)N)NC(=O)[C@H](CC(C)C)NC3=O)NC(=O)[C@@H]2CCCN2C(=O)[C@@H]2CCCN2C(=O)[C@H]([C@@H](C)CC)NC(=O)[C@H](CO)NC1=O` [[Y25y]pB1], the “EGFR affinity / EGF-like biological activity compared with bleogen pB1 (EGFR displacement)” value was “higher affinity than bleogen pB1” at EGFR and “increased EGF-like biological activities” on EGFR (listed as Y25y pB1). At EGFR, the half-maximal inhibitory concentration (IC50) stood at 0.58 ± 8.9e-05 µM. The “mitogenic effect compared with bleogen pB1” value with HaCaT cells [1] (72 h) is “more mitogenic than bleogen pB1”. The “EGFR dependence of proliferative/mitogenic effect” value in the data set on HaCaT cells [1] is “EGFR-dependent”.

For “EGF: epidermal growth factor, SEQ ID NO:10, positive control”, in the data set on newborn ICR mice, the “time of incisor eruption in newborn mice” value is 100 h. The “wound healing, full-thickness excision wound model in C57 mice” value in the data set with C57BL/6 mice is “accelerated wound healing from day 3 to day 11”. Besides, in data set [4], the “wound healing rate vs vehicle control in STZ-induced diabetic mice” value was “healed at a significantly faster rate starting from day 4 post-injury”. Moreover, the HaCaT cell migration entry in the data set with HaCaT cells [6] is on record as “accelerate”. Also, the “mRNA expression of c-fos” value in the data set on c-fos is given as “significantly upregulate”. For the same compound, the “mRNA expression of c-Jun” value with c-Jun is reported as “significantly upregulate”. For the same compound, the “endothelial cell tube formation” value in the data set on HUVEC-CS cells is reported as “accelerate”.

Regarding “NCESGTSCIPGAQHNCCSGVCVPIVTIFYGVCY (listed as Achyranthes bidentata) [aB1, reference compound]”, the “HaCaT cell proliferation, concentration up to which not active” value in the data set on HaCaT cells [1] (negative control) was above 10 µM.
